Test results published in paper PMC9340770 (Journal of Medicinal Chemistry, 2022).
Where two headings read alike, the source gives them in different places.

Tests used:
Rat PK (IV and PO) = assay type: in vivo, Sprague–Dawley rats
From the text: Table 9 PK Parameters for MRTX0902 (32) across Species | column: rat

[1] = PK across species (ranges); assay type: in vivo, CD-1 mice, Sprague–Dawley rats, and beagle dogs; conditions: range across mice, rats, dogs
[2] = pKa determination (Sirius T3); assay type: physicochemical; conditions: for pKa: water/methanol co-solvent mixture
Description: Sirius T3Dt (Sirius Analytical Instruments Ltd) fitted with combination Ag/AgCl pH electrode was used for the determination of dissociation constants. The pKa and psKa values were calculated by Sirius T3Dt software (Sirius Analytical Instruments Ltd, Version 1.0.12.120). There are two methods available on the Sirius T3 for pKa measurement: potentiometric titration and spectroscopic (UV) titration.
UV metric method: Pipetted 5 µL of sample stock solution (10 mM in DMSO) and 25 µL fast UV buffer into a sample vial, and 1.5 mL of 80%v/v MeOH was added into the sample vial automatically. Pre - acidified the sample solution with 0.5 M HCl by the instrument automatically, and then titrated three times from low to high pH. Refined the data to get aqu eous pKa value. pH metric method: About 1 mg of sample was weighed into a sample vial. 1.50 mL of 80%v/v MeOH was added into the vial automatically. The sample was solution pre -acidified with 0.5 M HCl by the instrument automatically, and then titrated three times from low to high pH. Refined the data to get aqueous pKa value.
Sirius T3 software always fits Yasuda -Shedlovsky data linearly, according to the equation.
• Yi is calculated as psKa + log [H 2O]
• psKa represents apparent pKa values of compounds measured in water/co -solvent mixtures • [H2O] represents the concentration of H2O in mixtures solution […]
• ε i represents dielectric constant of water/co-solvent mixture
Table S3. pKa of MRTX0902
Cmpd pKa pKa (pH Final pKa

ADORA2A = target: T1, ADORA2A (Homo sapiens, UniProt P29274); assay: Safetyscan Calcium Flux; assay type: cell-based
T1 construct: purchased DiscoverX (Eurofins) Safetyscan Panel

CCKAR = target: T2, CCKAR (Homo sapiens, UniProt P32238); assay: Safetyscan Calcium Flux; assay type: cell-based
T2 construct: purchased DiscoverX (Eurofins) Safetyscan Panel

EDNRA = target: T3, EDNRA (Homo sapiens, UniProt P25101); assay: Safetyscan Calcium Flux; assay type: cell-based
T3 construct: purchased DiscoverX (Eurofins) Safetyscan Panel

HRH1 = target: T4, HRH1 (Homo sapiens, UniProt P35367); assay: Safetyscan Calcium Flux; assay type: cell-based
T4 construct: purchased DiscoverX (Eurofins) Safetyscan Panel

ADRB1 = target: T5, ADRB1 (Homo sapiens, UniProt P08588); assay: Safetyscan cAMP; assay type: cell-based
T5 construct: purchased DiscoverX (Eurofins) Safetyscan Panel

ADRB2 = target: T6, ADRB2 (Homo sapiens, UniProt P07550); assay: Safetyscan cAMP; assay type: cell-based
T6 construct: purchased DiscoverX (Eurofins) Safetyscan Panel

HRH2 = target: T7, HRH2 (Homo sapiens, UniProt P25021); assay: Safetyscan cAMP; assay type: cell-based
T7 construct: purchased DiscoverX (Eurofins) Safetyscan Panel

CAV1.2 = target: T8, CAV1.2 (Homo sapiens, UniProt Q13936); assay: Safetyscan Ion Channel; assay type: cell-based; conditions: blocker mode, read-out: RC50 (IC50) CAV1.2 Blocker
T8 construct: purchased DiscoverX (Eurofins)

INSR = target: T9, INSR (Homo sapiens, UniProt P06213); assay: Safetyscan Kinases Binding; conditions: read-out: RC50 (IC50) INSR Inhibitor
T9 construct: purchased DiscoverX (Eurofins)

LCK = target: T10, LCK (Homo sapiens, UniProt P06239); assay: Safetyscan Kinases Binding; conditions: read-out: RC50 (IC50) LCK Inhibitor
T10 construct: purchased DiscoverX (Eurofins)

ROCK1 = target: T11, ROCK1 (Homo sapiens, UniProt Q13464); assay: Safetyscan Kinases Binding; conditions: read-out: RC50 (IC50) ROCK1 Inhibitor
T11 construct: purchased DiscoverX (Eurofins)

VEGFR2 = target: T12, VEGFR2 (Homo sapiens, UniProt P35968); assay: Safetyscan Kinases Binding; conditions: read-out: RC50 (IC50) VEGFR2 Inhibitor
T12 construct: purchased DiscoverX (Eurofins)

GR = target: T13, GR (Homo sapiens, UniProt P04150); assay: Safetyscan NHR Protein Interaction; assay type: cell-based
T13 construct: purchased DiscoverX (Eurofins)

COX1 = target: T14, COX1 (Homo sapiens, UniProt P23219); assay: Safetyscan Enzymatic; assay type: biochemical; conditions: read-out: RC50 (IC50) COX1 Inhibitor
T14 construct: purchased DiscoverX (Eurofins)

COX2 = target: T15, COX2 (Homo sapiens, UniProt P35354); assay: Safetyscan Enzymatic; assay type: biochemical; conditions: read-out: RC50 (IC50) COX2 Inhibitor
T15 construct: purchased DiscoverX (Eurofins)

PDE3A = target: T16, PDE3A (Homo sapiens, UniProt Q14432); assay: Safetyscan Enzymatic; assay type: biochemical; conditions: read-out: RC50 (IC50) PDE3A Inhibitor
T16 construct: purchased DiscoverX (Eurofins)

in vivo = conditions: CD-1, mouse, po, 30 mg/kg
CYP3A4 = CYP3A4 (Homo sapiens, UniProt P08684); assay: biochemical
[3] = tested on: safety panel comprised of 78 protein targets; assay: DiscoverX (Eurofins) Safetyscan panel, overall; conditions: safety panel of 78 protein targets
[4] = tested on: MIA PaCa-2 tumor mouse xenograft; assay: Antitumor efficacy study in MIA PaCa-2 mouse xenograft; conditions: for tumor growth inhibition (TGI): single agent, 25 days
[5] = CD-1, Sprague-Dawley, beagle, mouse, rat, dog, in vivo, IV administration

T7 sequence (P25021 whole entry): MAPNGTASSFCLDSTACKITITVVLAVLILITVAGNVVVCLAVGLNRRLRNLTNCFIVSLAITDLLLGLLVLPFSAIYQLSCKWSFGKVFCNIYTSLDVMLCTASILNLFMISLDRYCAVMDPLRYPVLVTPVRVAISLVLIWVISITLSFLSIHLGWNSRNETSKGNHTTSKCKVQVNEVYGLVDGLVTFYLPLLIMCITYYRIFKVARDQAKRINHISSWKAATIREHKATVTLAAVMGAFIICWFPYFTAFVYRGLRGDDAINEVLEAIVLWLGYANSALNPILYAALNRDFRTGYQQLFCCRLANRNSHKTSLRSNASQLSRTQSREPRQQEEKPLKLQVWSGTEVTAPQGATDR
T2 sequence (P32238 whole entry): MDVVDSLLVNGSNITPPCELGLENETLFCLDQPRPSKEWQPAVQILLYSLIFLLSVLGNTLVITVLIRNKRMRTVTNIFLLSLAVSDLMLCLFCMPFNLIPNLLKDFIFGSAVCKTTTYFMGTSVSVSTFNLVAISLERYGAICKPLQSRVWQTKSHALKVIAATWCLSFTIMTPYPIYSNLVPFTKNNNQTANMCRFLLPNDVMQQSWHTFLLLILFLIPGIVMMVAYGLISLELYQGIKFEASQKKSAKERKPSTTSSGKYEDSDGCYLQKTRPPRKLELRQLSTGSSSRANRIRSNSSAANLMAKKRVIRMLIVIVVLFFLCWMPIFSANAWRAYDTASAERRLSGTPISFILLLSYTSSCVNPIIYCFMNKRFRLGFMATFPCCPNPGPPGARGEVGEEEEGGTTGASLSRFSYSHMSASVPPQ
T4 sequence (P35367 whole entry): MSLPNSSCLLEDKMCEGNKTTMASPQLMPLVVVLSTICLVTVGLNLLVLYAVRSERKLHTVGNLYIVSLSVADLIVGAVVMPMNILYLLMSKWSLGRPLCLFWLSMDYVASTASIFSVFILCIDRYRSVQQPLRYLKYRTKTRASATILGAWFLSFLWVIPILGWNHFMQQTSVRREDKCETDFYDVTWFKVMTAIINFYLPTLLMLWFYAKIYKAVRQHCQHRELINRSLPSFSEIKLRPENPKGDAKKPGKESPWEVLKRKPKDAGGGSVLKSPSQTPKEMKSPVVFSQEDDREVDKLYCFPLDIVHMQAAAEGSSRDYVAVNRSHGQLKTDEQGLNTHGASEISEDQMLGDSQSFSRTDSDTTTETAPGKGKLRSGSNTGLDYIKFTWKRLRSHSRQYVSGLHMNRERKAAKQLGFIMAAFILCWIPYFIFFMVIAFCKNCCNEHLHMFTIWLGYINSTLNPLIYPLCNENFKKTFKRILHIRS
T1 sequence (P29274 whole entry): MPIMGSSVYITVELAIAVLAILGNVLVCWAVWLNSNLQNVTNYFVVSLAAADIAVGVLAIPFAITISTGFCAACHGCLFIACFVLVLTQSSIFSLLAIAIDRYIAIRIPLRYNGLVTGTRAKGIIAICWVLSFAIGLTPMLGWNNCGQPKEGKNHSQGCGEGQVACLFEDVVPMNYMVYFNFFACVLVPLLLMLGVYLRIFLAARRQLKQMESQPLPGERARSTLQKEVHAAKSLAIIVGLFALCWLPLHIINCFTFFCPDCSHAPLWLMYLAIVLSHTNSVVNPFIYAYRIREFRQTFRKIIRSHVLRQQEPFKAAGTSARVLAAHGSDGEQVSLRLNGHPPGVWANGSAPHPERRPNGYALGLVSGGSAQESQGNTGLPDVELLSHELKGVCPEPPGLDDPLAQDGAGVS
T6 sequence (P07550 whole entry): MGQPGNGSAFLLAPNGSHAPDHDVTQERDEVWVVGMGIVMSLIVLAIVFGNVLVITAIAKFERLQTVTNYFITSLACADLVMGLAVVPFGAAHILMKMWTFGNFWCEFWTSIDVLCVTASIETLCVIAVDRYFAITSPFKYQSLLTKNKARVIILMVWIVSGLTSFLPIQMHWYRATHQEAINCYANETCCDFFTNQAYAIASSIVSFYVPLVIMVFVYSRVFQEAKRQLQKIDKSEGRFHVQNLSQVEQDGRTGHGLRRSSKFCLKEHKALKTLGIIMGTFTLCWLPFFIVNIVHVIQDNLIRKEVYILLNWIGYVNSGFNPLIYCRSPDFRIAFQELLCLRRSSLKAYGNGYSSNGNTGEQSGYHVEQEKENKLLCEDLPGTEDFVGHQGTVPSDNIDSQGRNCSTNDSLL
T5 sequence (P08588 whole entry): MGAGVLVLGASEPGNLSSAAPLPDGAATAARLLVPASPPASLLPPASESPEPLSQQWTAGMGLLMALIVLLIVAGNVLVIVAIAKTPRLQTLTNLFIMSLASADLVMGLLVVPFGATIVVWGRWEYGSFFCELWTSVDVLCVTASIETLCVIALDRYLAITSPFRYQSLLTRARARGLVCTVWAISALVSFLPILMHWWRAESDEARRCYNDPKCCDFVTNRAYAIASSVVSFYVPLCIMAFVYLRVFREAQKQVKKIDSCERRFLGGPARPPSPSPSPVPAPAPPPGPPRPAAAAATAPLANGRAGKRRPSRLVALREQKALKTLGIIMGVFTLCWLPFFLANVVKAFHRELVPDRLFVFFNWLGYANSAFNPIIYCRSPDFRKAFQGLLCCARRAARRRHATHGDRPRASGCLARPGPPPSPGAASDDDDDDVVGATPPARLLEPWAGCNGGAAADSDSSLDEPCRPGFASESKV
T13 sequence (P04150 whole entry): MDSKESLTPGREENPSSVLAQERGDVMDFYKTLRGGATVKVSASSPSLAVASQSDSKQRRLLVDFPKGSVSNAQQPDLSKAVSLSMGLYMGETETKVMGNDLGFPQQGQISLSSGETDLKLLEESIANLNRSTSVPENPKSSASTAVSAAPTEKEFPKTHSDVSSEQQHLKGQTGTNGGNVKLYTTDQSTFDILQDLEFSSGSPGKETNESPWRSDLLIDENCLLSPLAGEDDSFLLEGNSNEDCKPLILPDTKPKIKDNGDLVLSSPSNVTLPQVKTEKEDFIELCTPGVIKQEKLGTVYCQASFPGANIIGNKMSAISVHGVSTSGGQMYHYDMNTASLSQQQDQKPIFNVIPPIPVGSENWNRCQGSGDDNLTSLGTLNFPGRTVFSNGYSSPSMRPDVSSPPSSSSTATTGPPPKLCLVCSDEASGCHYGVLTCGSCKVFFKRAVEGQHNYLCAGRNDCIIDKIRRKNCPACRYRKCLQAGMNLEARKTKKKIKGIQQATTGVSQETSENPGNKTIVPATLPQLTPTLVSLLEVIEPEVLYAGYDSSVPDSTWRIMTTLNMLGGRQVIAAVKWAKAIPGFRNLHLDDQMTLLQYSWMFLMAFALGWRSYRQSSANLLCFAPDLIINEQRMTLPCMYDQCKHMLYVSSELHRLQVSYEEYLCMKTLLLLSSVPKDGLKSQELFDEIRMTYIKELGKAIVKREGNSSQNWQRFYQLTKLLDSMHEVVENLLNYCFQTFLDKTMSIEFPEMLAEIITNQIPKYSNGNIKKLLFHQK
T3 sequence (P25101 21-427): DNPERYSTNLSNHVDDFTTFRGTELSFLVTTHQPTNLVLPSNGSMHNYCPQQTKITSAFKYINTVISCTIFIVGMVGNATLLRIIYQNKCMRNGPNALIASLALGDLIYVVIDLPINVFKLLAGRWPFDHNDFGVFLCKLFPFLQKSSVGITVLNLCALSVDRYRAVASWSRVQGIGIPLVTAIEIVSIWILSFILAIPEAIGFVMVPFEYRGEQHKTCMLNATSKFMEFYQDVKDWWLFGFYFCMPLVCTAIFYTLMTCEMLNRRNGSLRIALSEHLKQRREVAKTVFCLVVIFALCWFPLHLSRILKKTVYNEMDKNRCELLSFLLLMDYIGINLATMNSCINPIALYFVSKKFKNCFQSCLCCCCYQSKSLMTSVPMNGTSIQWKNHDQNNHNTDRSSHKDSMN
T10 sequence (P06239 whole entry): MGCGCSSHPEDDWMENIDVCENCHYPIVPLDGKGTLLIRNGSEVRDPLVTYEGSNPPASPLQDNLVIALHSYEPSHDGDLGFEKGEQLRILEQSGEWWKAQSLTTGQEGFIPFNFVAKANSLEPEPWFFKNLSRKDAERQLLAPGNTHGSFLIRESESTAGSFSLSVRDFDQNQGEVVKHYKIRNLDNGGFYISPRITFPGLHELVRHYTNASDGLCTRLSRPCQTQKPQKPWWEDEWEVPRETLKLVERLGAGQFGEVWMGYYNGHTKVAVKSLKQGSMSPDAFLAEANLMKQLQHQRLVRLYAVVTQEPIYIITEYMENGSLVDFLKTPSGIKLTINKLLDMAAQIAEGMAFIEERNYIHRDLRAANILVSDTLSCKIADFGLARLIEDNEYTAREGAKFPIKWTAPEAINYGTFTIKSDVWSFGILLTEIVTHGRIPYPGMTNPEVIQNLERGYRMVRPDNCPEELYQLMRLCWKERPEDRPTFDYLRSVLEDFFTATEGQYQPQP
CYP3A4, sequence (P08684 whole entry): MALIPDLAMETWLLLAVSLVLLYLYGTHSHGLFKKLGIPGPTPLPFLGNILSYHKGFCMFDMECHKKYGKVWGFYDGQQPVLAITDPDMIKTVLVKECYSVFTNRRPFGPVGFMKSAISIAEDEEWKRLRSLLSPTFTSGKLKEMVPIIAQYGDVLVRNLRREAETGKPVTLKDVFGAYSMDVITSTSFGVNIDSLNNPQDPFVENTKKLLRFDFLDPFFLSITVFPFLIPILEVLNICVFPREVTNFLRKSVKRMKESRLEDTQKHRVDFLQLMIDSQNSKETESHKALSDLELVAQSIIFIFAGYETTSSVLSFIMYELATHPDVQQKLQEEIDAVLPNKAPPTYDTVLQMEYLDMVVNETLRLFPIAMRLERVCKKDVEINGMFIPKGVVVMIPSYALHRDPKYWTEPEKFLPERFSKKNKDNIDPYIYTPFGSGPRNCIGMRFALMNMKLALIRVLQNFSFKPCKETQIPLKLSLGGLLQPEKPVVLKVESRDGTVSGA

With `Cc1c(C#N)cccc1[C@@H](C)Nc1nnc(C)c2cnc(N3CCOCC3)cc12` [Compound 32, (R)-2-Methyl-3-(1-((4-methyl-7-morpholinopyrido[3,4-d]pyridazin-1-yl)amino)ethyl)benzonitrile] as the compound, how does the “IV t1/2” value (Rat PK (IV and PO); IV 1 mg/kg) read?
Its value is 37.2 min.

And the “Vd,ss” value (Rat PK (IV and PO); IV 1 mg/kg)?
Its value is 0.28 L/kg.

And the clearance (Rat PK (IV and PO); Sprague-Dawley, in vivo, IV 1 mg/kg)?
The clearance was 14.6 mL/min/kg.

And the bioavailability (Rat PK (IV and PO); Sprague-Dawley, in vivo, IV/PO 1/10 mg/kg, PO suspension in 0.5% MC (4000 cps)/0.2% Tween80 in water)?
Its bioavailability is 83%.

What about the clearance [1, 5] of the same compound?
The clearance was 4.4 to 14.6 mL/min/kg.

What about the half-life [1, 5] of the same compound?
Its half-life is 37.2 to 78 min.

What about the Vd ([1]; CD-1, Sprague-Dawley, beagle, mouse, rat, dog, in vivo, IV administration, read-out: volume of distribution) of the same compound?
Its Vd is 0.28 to 0.48 L/kg.

And the bioavailability ([1]; PO suspension in 0.5% MC (4000 cps)/0.2% Tween80 in water)?
The bioavailability was 38–83 %F.

And the “ionized at pH 7.4” value ([2]; pH 7.4, based on measured pKa)?
The value was roughly 17%.

And the pKa ([2]; UV metric method, read-out: pKa (UV metric))?
The pKa was 6.78.

And the pKa ([2]; pH 7.4, pKa (final pKa result))?
Its pKa is 6.7.

What about the pKa ([2]; pH metric method, read-out: pKa (pH metric)) of the same compound?
The pKa was 6.62.

And the EC50 (ADORA2A; agonist mode, read-out: RC50 (EC50) ADORA2A Agonist)?
The EC50 was greater than 10 µM.

And the IC50 (ADORA2A; antagonist mode, read-out: RC50 (IC50) ADORA2A Antagonist)?
Its IC50 is greater than 10 µM.

And the EC50 (CCKAR; agonist mode, read-out: RC50 (EC50) CCKAR Agonist)?
The EC50 was greater than 10 µM.

What about the IC50 (CCKAR; antagonist mode, read-out: RC50 (IC50) CCKAR Antagonist) of the same compound?
Its IC50 is greater than 10 µM.

And the EC50 (EDNRA; agonist mode, read-out: RC50 (EC50) EDNRA Agonist)?
The EC50 was greater than 10 µM.

What about the IC50 (EDNRA; antagonist mode, read-out: RC50 (IC50) EDNRA Antagonist) of the same compound?
The IC50 was greater than 10 µM.

What about the EC50 (HRH1; agonist mode, read-out: RC50 (EC50) HRH1 Agonist) of the same compound?
The EC50 was greater than 10 µM.

What about the IC50 (HRH1; antagonist mode, read-out: RC50 (IC50) HRH1 Antagonist) of the same compound?
The IC50 was greater than 10 µM.

What about the EC50 (ADRB1; agonist mode, read-out: RC50 (EC50) ADRB1 Agonist) of the same compound?
The EC50 was greater than 10 µM.

What about the IC50 (ADRB1; antagonist mode, read-out: RC50 (IC50) ADRB1 Antagonist) of the same compound?
The IC50 was greater than 10 µM.

And the EC50 (ADRB2; agonist mode, read-out: RC50 (EC50) ADRB2 Agonist)?
Its EC50 is greater than 10 µM.

What about the IC50 (ADRB2; antagonist mode, read-out: RC50 (IC50) ADRB2 Antagonist) of the same compound?
The IC50 was greater than 10 µM.

And the EC50 (HRH2; agonist mode, read-out: RC50 (EC50) HRH2 Agonist)?
Its EC50 is greater than 10 µM.

And the IC50 (HRH2; antagonist mode, read-out: RC50 (IC50) HRH2 Antagonist)?
The IC50 was greater than 10 µM.

What about the IC50 (CAV1.2) of the same compound?
Its IC50 is greater than 10 µM.

And the IC50 (INSR)?
The IC50 was greater than 10 µM.

And the IC50 (LCK)?
Its IC50 is greater than 10 µM.

What about the IC50 (ROCK1) of the same compound?
The IC50 was greater than 10 µM.

What about the IC50 (VEGFR2) of the same compound?
The IC50 was greater than 10 µM.

What about the EC50 (GR; agonist mode, read-out: RC50 (EC50) GR Agonist) of the same compound?
Its EC50 is greater than 10 µM.

What about the IC50 (GR; antagonist mode, read-out: RC50 (IC50) GR Antagonist) of the same compound?
The IC50 was greater than 10 µM.

What about the IC50 (COX1) of the same compound?
Its IC50 is greater than 10 µM.

And the IC50 (COX2)?
Its IC50 is greater than 10 µM.

What about the IC50 (PDE3A) of the same compound?
Its IC50 is greater than 10 µM.

And the bioavailability (in vivo)?
The bioavailability was 69%.

What about the IC50 (CYP3A4) of the same compound?
The IC50 was 3.6 µM.

And the IC50 [3]?
The IC50 was greater than 10 µM.

And the tumor regression ([4]; MRTX0902 25 mg/k bid in combination with MRTX849 10 mg/kg qd)?
The tumor regression was −54%.

And the tumor regression ([4]; MRTX0902 50 mg/kg bid in combination with MRTX849 10 mg/kg qd)?
The tumor regression was −92%.

What about the tumor-free animals ([4]; MRTX0902 50 mg/kg bid with MRTX849 10 mg/kg qd, n = 5 animals/group) of the same compound?
The tumor-free animals was “two tumor-free animals”.

What about the “tumor growth inhibition (TGI)” value ([4]; 25 mg/kg bid PO) of the same compound?
Its value is 41%.

What about the “tumor growth inhibition (TGI)” value ([4]; 50 mg/kg bid PO) of the same compound?
Its value is 53%.
